For this test, the target named is full length MPS1 (Homo sapiens (Human), UniProt P33981). Nature of the test: Measurement of inhibition of MPS1 kinase (Caliper EZ reader, fluorescent labelled peptide H236). It counts as biochemical. On the procedure:
The reaction was carried out for 60 min at room temperature and stopped by the addition of buffer (10 μl) containing 20 mM EDTA, 0.05% (v/v) Brij-35, in 0.1M HEPES-buffered saline (Free acid, Sigma, UK). The plate was read on a Caliper EZ reader II (Caliper Life Sciences).
The reader provides a Software package (‘Reviewer’) which converts the peak heights into % conversion by measuring both product and substrate peak and also allows selection of control well which represent 0% and 100% inhibition respectively. The % inhibition of the compounds is calculated relative to the means of selected control wells. IC50s are determined by testing the compounds at a range of concentrations from 0.25 nM-100 μM. The % inhibitions at each concentration are then fitted to a 4 parameter logistic fit: y=(a+((b−a)/(1+((c/x^d)))) where a=asym min, b=asym max, c=IC50 and d=hill coefficient

Setting [1] is: full length MPS1 12.5 nM or 3 nM, peptide H236 5 μM, ATP 10 μM, 60 min at room temperature.

pIC50: −log10 of the molar value. Where two headings read alike, the source gives them in different places.

Chain of full length MPS1 (P33981 whole entry): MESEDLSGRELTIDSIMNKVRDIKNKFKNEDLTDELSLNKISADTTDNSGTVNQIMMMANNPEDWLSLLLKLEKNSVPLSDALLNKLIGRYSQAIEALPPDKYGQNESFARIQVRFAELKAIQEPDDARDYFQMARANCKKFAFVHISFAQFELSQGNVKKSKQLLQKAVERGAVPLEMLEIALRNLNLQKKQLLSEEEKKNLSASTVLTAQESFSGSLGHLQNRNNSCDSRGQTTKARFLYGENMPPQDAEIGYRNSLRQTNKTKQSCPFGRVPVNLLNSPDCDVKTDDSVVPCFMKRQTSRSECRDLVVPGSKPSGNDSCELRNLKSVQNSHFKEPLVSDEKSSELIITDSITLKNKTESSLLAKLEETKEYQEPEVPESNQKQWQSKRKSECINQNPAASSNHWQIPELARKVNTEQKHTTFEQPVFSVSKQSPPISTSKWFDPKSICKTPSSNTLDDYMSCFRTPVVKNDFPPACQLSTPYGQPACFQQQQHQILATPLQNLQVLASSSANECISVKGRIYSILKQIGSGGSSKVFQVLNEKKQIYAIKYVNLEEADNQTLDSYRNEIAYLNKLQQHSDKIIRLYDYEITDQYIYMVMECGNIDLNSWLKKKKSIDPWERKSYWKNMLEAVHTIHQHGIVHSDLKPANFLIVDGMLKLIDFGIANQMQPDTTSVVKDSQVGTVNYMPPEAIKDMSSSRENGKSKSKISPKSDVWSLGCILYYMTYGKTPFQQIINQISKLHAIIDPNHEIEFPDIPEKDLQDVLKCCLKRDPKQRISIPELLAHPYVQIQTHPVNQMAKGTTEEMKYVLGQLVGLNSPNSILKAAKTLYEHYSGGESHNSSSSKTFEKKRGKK

`COc1cc(-c2cnc(C)n2C)ccc1Nc1cc2cc(-c3cccnc3)ccc2cn1` [Example 16, N-(4-(1,2-dimethyl-1H-imidazol-5-yl)-2-methoxyphenyl)-6-(pyridin-3-yl)isoquinolin-3-amine] gave a pIC50 under setting [1] of 8.52.
In turn, `COc1cc(-c2cnc(C)n2C)ccc1Nc1cc2cc(-c3cncnc3)ccc2cn1` [Example 17, N-(4-(1,2-dimethyl-1H-imidazol-5-yl)-2-methoxyphenyl)-6-(pyrimidin-5-yl)isoquinolin-3-amine] gave a pIC50 under setting [1] of 7.85.
Take `COc1cc(-c2cnc(C)n2C)ccc1Nc1cc2cc(C3CC3)ccc2cn1` [Example 18, 6-Cyclopropyl-N-(4-(1,2-dimethyl-1H-imidazol-5-yl)-2-methoxyphenyl)isoquinolin-3-amine]: the pIC50 under setting [1] is 6.84.
Same read-out and setting: the figure for `COc1cc(-c2cnc(C)n2C)ccc1Nc1cc2cc(-c3cn(C)nc3C)ccc2cn1` [Example 19, N-(4-(1,2-dimethyl-1H-imidazol-5-yl)-2-methoxyphenyl)-6-(1,3-dimethyl-1H-pyrazol-4-yl)isoquinolin-3-amine] is 7.52.
`COc1cc(-c2cnc(C)n2C)ccc1Nc1cc2cc(-c3cnn(C)c3C)ccc2cn1` [Example 20, N-(4-(1,2-dimethyl-1H-imidazol-5-yl)-2-methoxyphenyl)-6-(1,5-dimethyl-1H-pyrazol-4-yl)isoquinolin-3-amine] showed a pIC50 under setting [1] of 8.70.
`COc1cc(-c2cncn2C)ccc1Nc1cc2cc(-c3cnn(C)c3)ccc2cn1` [Example 21, N-(2-methoxy-4-(1-methyl-1H-imidazol-5-yl)phenyl)-6-(1-methyl-1H-pyrazol-4-yl)isoquinolin-3-amine] gave a pIC50 under setting [1] of 8.52.
For `Cc1ncc(-c2ccc(Nc3cc4cc(-c5cnn(C)c5)ccc4cn3)c(Cl)c2)n1C` [Example 22, N-(2-chloro-4-(1,2-dimethyl-1H-imidazol-5-yl)phenyl)-6-(1-methyl-1H-pyrazol-4-yl)isoquinolin-3-amine], under setting [1], the pIC50 is 8.40.
Turning to `COc1cc(-c2cnc(C)n2C)ccc1Nc1cc2cc(-c3cnn(C)c3)ccc2cn1` [Example 23, N-(4-(1,2-dimethyl-1H-imidazol-5-yl)-2-methoxyphenyl)-6-(1-methyl-1H-pyrazol-4-yl)isoquinolin-3-amine], the pIC50 under setting [1] was 8.70.
`COc1cc(C(=O)N2CC(OC)C2)ccc1Nc1cc2cc(-c3cnn(C)c3)ccc2cn1` [Example 24, (3-Methoxy-4-((6-(1-methyl-1H-pyrazol-4-yl)isoquinolin-3-yl)amino)phenyl)(3-methoxyazetidin-1-yl)methanone] had a pIC50 under setting [1] of 8.70.
`COCCn1cc(-c2ccc3cnc(Nc4ccc(-c5cnc(CO)n5C)cc4OC)cc3c2)cn1` [Example 25, (5-(3-Methoxy-4-((6-(1-(2-methoxyethyl)-1H-pyrazol-4-yl)isoquinolin-3-yl)amino)phenyl)-1-methyl-1H-imidazol-2-yl)methanol]: the pIC50 is 7.55.
In the case of `COc1cc(-c2cnc(C)n2C)ccc1Nc1cc2cc(-c3cncc(C)c3)ccc2cn1` [Example 26, N-(4-(1,2-dimethyl-1H-imidazol-5-yl)-2-methoxyphenyl)-6-(5-methylpyridin-3-yl)isoquinolin-3-amine], the pIC50 under setting [1] was 8.00.
On to `COc1cc(-c2cnc(C)n2C)ccc1Nc1cc2cc(-c3cnnn3C)ccc2cn1` [Example 27, N-(4-(1,2-dimethyl-1H-imidazol-5-yl)-2-methoxyphenyl)-6-(1-methyl-1H-1,2,3-triazol-5-yl)isoquinolin-3-amine], for which the pIC50 under setting [1] is 8.40.
Same read-out and setting: the value for `COc1cc(-c2cnc(C)n2C)ccc1Nc1cc2cc(-c3cnn(CC4CCC4)c3)ccc2cn1` [Example 28, 6-(1-(Cyclobutylmethyl)-1H-pyrazol-4-yl)-N-(4-(1,2-dimethyl-1H-imidazol-5-yl)-2-methoxyphenyl)isoquinolin-3-amine] was 8.52; that for `COc1cc(-c2cnc(C)n2C)ccc1Nc1cc2cc(-c3cnn(CC(C)(C)O)c3)ccc2cn1` [Example 29, 1-(4-(3-((4-(1,2-Dimethyl-1H-imidazol-5-yl)-2-methoxyphenyl)amino)isoquinolin-6-yl)-1H-pyrazol-1-yl)-2-methylpropan-2-ol] was 8.70; that for `COc1cc(-c2cnc(C)n2C)ccc1Nc1cc2cc(-c3cnn(CC4(C)COC4)c3)ccc2cn1` [Example 30, N-(4-(1,2-Dimethyl-1H-imidazol-5-yl)-2-methoxyphenyl)-6-(1-((3-methyloxetan-3-yl)methyl)-1H-pyrazol-4-yl)isoquinolin-3-amine] was 8.70.
In the case of `COCCn1cc(-c2ccc3cnc(Nc4ccc(-c5cnc(C)n5CCOC)cc4OC)cc3c2)cn1` [Example 31, N-(2-Methoxy-4-(1-(2-methoxyethyl)-2-methyl-1H-imidazol-5-yl)phenyl)-6-(1-(2-methoxyethyl)-1H-pyrazol-4-yl)isoquinolin-3-amine], the pIC50 under setting [1] is 8.70.
Under setting [1], `COc1cc(-c2cnc(C)n2C)ccc1Nc1cc2cc(-c3cnn(C4COC4)c3)ccc2cn1` [Example 33, N-(4-(1,2-Dimethyl-1H-imidazol-5-yl)-2-methoxyphenyl)-6-(1-(oxetan-3-yl)-1H-pyrazol-4-yl)isoquinolin-3-amine] had a pIC50 of 8.52.
Consider `COc1cc(-c2cnc(C)n2C)ccc1Nc1cc2cc(-c3cnn(C)c3CO)ccc2cn1` [Example 34, (4-(3-((4-(1,2-Dimethyl-1H-imidazol-5-yl)-2-methoxyphenyl)amino)isoquinolin-6-yl)-1-methyl-1H-pyrazol-5-yl)methanol], for which the pIC50 under setting [1] is 8.52.
Regarding `COCCn1c(-c2ccc(Nc3cc4cc(-c5cnn(CC(C)(C)O)c5)ccc4cn3)c(OC)c2)cnc1C` [Example 35, 1-(4-(3-((2-Methoxy-4-(1-(2-methoxyethyl)-2-methyl-1H-imidazol-5-yl)phenyl)amino)-isoquinolin-6-yl)-1H-pyrazol-1-yl)-2-methylpropan-2-ol], the pIC50 under setting [1] was 8.52.
In the case of `COc1cc(-c2cnn(C)c2CO)ccc1Nc1cc2cc(-c3cnn(CC(C)(C)O)c3)ccc2cn1` [Example 36, 1-(4-(3-((4-(5-(Hydroxymethyl)-1-methyl-1H-pyrazol-4-yl)-2-methoxyphenyl)amino)-isoquinolin-6-yl)-1H-pyrazol-1-yl)-2-methylpropan-2-ol], the pIC50 under setting [1] was 8.52.
On to `COc1cc(-c2cnc(C)n2C)ccc1Nc1cc2cc(-c3cnn(CC4COC4)c3)ccc2cn1` [Example 37, N-(4-(1,2-Dimethyl-1H-imidazol-5-yl)-2-methoxyphenyl)-6-(1-(oxetan-3-ylmethyl)-1H-pyrazol-4-yl)isoquinolin-3-amine], for which, under setting [1], the pIC50 is 8.30.
The compound `COc1cc(-c2cnc(C)n2C)ccc1Nc1cc2cc(-c3cnn(C4CCOCC4)c3)ccc2cn1` [Example 39, N-(4-(1,2-Dimethyl-1H-imidazol-5-yl)-2-methoxyphenyl)-6-(1-(tetrahydro-2H-pyran-4-yl)-1H-pyrazol-4-yl)isoquinolin-3-amine] had a pIC50 under setting [1] of 8.22.
As for `COc1cc(-c2nncn2C)ccc1Nc1cc2cc(-c3cnn(CC(C)(C)O)c3)ccc2cn1` [Example 41, 1-(4-(3-((2-Methoxy-4-(4-methyl-4H-1,2,4-triazol-3-yl)phenyl)amino)isoquinolin-6-yl)-1H-pyrazol-1-yl)-2-methylpropan-2-ol], the pIC50 under setting [1] was 9.00.

In general, pIC50 refers to the negative decadic logarithm of the IC50, by convention in mol/L. Low values mean a large IC50, high ones a small IC50.

(Values after patent publication US9334286B2, “Pharmacologically active compounds” (Cancer Research Technology Limited, priority 2012, dated 2016).)
